# Measured values reported in patent US5114926A, “Tetrapeptide inhibiting the entry into cycle of hemopoietic stem cells processes for its preparation, and its uses” (Institut National De La Sante Et De La Recherche Medicale, priority 1986, dated 1992).
# Where “and” joins values, the source holds several entries; their conditions need not be identical. Equal values may be shown once. Where a SMILES comes first, the peptide text is derived from it.
# Assays:
# CFU-S [1] = experiment: in vivo inhibition of the entry into cycle of the CFU-S induced by an injection of Ara-C; parameters: species or system mice of Balb/C or CBA strain; conditions: for % of CFU-S in DNA synthesis: protocol II, i.p.; for biological activity compared with the natural peptide: synthetic versus natural peptide, tables I, II and III
# Procedure: The biological activity of the fractions is measured by in vivo inhibition tests of the entry into cycle of the CFU-S, induced by an injection of Ara-C.
# The CFU-S of the mouse, normally quiescent, enter into cycle after an injection of Ara-C.
# The number of CFU-S is determined by the technique of J. E. Till and E. A. McCulloch, Radiat. Res. 14, (1961), 213-222, whose principle rests on the capacity of CFU-S to form macroscopic colonies in the spleen. These colonies are clones descended from one CFU-S.
# The proportion of CFU-S in S phase is determined by the method of A. J. Becker et al., Blood, 26, (1965), 296-308, based on the principle of cellular suicides. The incubation of the cells with a tritiated thymidine (precursor of DNA) solution leads to the selective death of the cells in phase of DNA synthesis by integration of a lethal dose of radioactivity (tritium) into the DNA molecule.
# The tests are performed on SPF (Specific Pathogen Ffree)mice of Balb/C or CBA strain, aged from 2 to 3 months.
# 1. The control groups receive by the i.p. route the following treatment:
# Time 0: Ara-C (10 mg--protocol I or 20 mg--protocol II) dissolved in 0.2 ml of saline;
# Time 6H: 0.2 ml of saline;
# Time 8H: sacrifice (protocol I);
# Time 12H: sacrifice (protocol II).
# 2. The treated groups receive by the i.p. route:
# Time 0: Ara-C (10 mg--protocol I or 20 mg--protocol II) dissolved in 0.2 ml of saline.
# Time 6h: fraction to be tested dissolved in 0.2 ml of saline;
# Time 8H: sacrifice (protocol I):
# Time 12H: sacrifice (protocol II). [drawing 1]
# For each of the groups, the bone marrow of the animals is collected and suspended in 2 ml of Medium 199 (EUROBIO). After the numbering and suitable dilution, 2 aliquots of 5×10^6 nucleated cells are incubated at 37° C. for 20 min. either with 1 ml of Medium 199 (Test A), or with 1 ml of tritiated thymidine (200 μCi) (Test B). A cellular suspension of 0.2 ml containing 8×10^4 to 1.2×10^5 nucleated cells is injected intravenously into the retro-orbital sinus of the irradiated receiver animals (9 Gy, 8 mice per experimental plot). Nine days later, the receiver mice are sacrificed, their spleen taken out and fixed in Bouin fluid (1% picric acid: 720 g; formol: 240 g; acetic acid: 4 g, per 1 l of fluid). After some hours of fixation, the nodules visible macroscopically are counted.
# If N and N' are the average numbers of the nodules obtained on the spleens of the receivers having received cells coming form tests A and B respectively, the proportion of CFU-S in phase of DNA synthesis is calculated by the formula: [formula]
# EMT6 tumor = experiment: regression of EMT6 tumors under Ara-C plus inhibitor; assay type: in vivo, mice; conditions: EMT6 tumor carriers, Ara-C at 0, 7, 24 and 30 hours, inhibitor at 26 hours
# CFU-S [2] = experiment: toxicity with respect to CFU-S; assay type: in vivo, mice; conditions: at the doses used
# [3] = survival of animals treated with lethal doses of Ara-C; assay type: in vivo, mice; conditions: Ara-C 4×925 mg/kg at 0, 7, 24 and 30 hours; tested fraction once at 26 hours
# Procedure: The animals receive fractionated doses of Ara-C (4×925 mg/kg) at times 0, 7, 24 and 30 hours. The tested fraction is administered at once 26 hours after the first injection of Ara-C. The survival of the animals is estimated 15-30 days after the treatment.
# [4] = lethality in the treated mice; assay type: in vivo; conditions: at the doses used
compound,measurement,setting,value
"Nc1ccn([C@@H]2O[C@H](CO)[C@@H](O)[C@@H]2O)c(=O)n1 [Ara-C, cytosine arabinoside, reference compound]",percentages of CFU-S in phase of DNA synthesis,"CFU-S [1]; ARA-C alone, Table III batch A series (5 exp.)",40.7 ± 9.3%
same,percentages of CFU-S in phase of DNA synthesis,"CFU-S [1]; ARA-C alone, Table III batch B series (2 exp.)",47.4 ± 9%
same,"percentages of CFU-S in phase of DNA synthesis, mean","CFU-S [1]; ARA-C alone, mean of Table II tests 1-8",38.7%
same,"percentages of CFU-S in phase of DNA synthesis, mean","CFU-S [1]; ARA-C alone, mean of Table III series A and B",44.1%
same,% of CFU-S in DNA synthesis,CFU-S [1]; Ara-C (20 mg) alone,43 ± 9%
"CC(=O)N[C@@H](CO)C(=O)N[C@@H](CC(=O)O)C(=O)N[C@@H](CCCCN)C(=O)N1CCC[C@H]1C(=O)O [inhibitor, n--acetyl-seryl-aspartyl-lysyl-proline] (Ac-SDKP-OH)",effect on the therapeutic action of Ara-C with respect to tumor cells,EMT6 tumor,does not prevent the therapeutic action of Ara-C with respect to tumor cells
same,survival of the treated animals,EMT6 tumor; comparable with bone marrow grafting,permits the survival of the treated animals
same,percentages of CFU-S in phase of DNA synthesis,"CFU-S [1]; ARA-C + natural peptide 100 ng/mouse, bone marrow batch A (5 exp.)",12.6 ± 14.8%
same,percentages of CFU-S in phase of DNA synthesis,"CFU-S [1]; ARA-C + natural peptide 100 ng/mouse, bone marrow batch B (2 exp.)",2.99 ± 13%
same,"percentages of CFU-S in phase of DNA synthesis, mean","CFU-S [1]; ARA-C + natural peptide, mean of batches A and B",7.8%
same,% of CFU-S in DNA synthesis,CFU-S [1]; Ara-C (20 mg) + inhibitor (100 ng per mouse),7 ± 4%
same,dosage at which the fraction is active in the mouse,CFU-S [1]; homogeneous fraction after reverse phase HPLC,about 100 ng/mouse
same,entry of the CFU-S into DNA synthesis (S phase),CFU-S [1]; inhibitor injected 6 hours after Ara-C,prevents the entry of the CFU-S into DNA synthesis
same,toxicity with respect to CFU-S,CFU-S [2],devoided of toxicity with respect to CFU-S
same,survival of the animals 15-30 days after the treatment,[3],enabled the definitive survival of a large number of animals
same,lethality in the treated mice,[4],does not result in any lethality
"CC(=O)N[C@@H](CO)C(=O)N[C@@H](CC(=O)O)C(=O)N[C@@H](CCCCN)C(=O)N1CCC[C@H]1C(=O)O [synthetic tetrapeptide, Ac-S-D-K-P--OH] (Ac-SDKP-OH)",percentages of CFU-S in phase of DNA synthesis,"CFU-S [1]; ARA-C + synthetic tetrapeptide 25 ng/mouse, test 6, second synthesis",19%
same,percentages of CFU-S in phase of DNA synthesis,"CFU-S [1]; ARA-C + synthetic tetrapeptide 50 ng/mouse, test 5, second synthesis",13%
same,percentages of CFU-S in phase of DNA synthesis,"CFU-S [1]; ARA-C + synthetic tetrapeptide 100 ng/mouse, tests 4, 7, 8, second synthesis",6% and 10%
same,"percentages of CFU-S in phase of DNA synthesis, mean","CFU-S [1]; ARA-C + synthetic tetrapeptide, mean of tests 1-8 (25-100 ng/mouse)",10.5%
same,biological activity compared with the natural peptide,CFU-S [1],possesses the biological properties of the natural peptide
same,biological activity compared with the natural peptide,CFU-S [1]; listed as synthetic peptide,quite similar activity to that obtained with a natural peptide
